Patent US20080319175A1, “Transthyretin Stabilization” (The Scripps Research Institute, priority 2004, published 2008)

Assays:
WT-TTR [1] = biological target: T1, WT-TTR (Homo sapiens, UniProt P02766); assay: time course analysis of WT-TTR fibril formation inhibition (turbidity at 500 nm); assay type: biochemical; settings: WT-TTR 3.6 μM; for TTR amyloidogenesis mediated by partial acidification relative to control: inhibitor 7.2 and 3.6 μM, pH 4.4
T1 construct: made in house
Text: (§1) The ability of these inhibitors to impose kinetic stability on tetrameric TTR is best evaluated by assessing the rate of TTR tetramer dissociation (Hammarstrom, P.; et al. Science 2003, 299, 713-716; Hammarstrom, P.; et al. Proc. Natl. Acad. Sci. USA 2002, 99, 16427-16432). Under acidic conditions tetramer dissociation leads to amyloidogenesis, whereas in the presence of chaotropes (6M urea), tetramer dissociation leads to monomer unfolding. The influence of inhibitors 25, 47 and 64, representing the three structural classes of dibenzofuran-based inhibitors, on the rates of tetramer dissociation under acid- and urea-mediated denaturing conditions was probed. […] The rate of TTR tetramer dissociation in 6M urea is easily monitored by linking the slow quaternary structural changes to rapid tertiary structural changes that are easily monitored by spectroscopic methods (Hammarstrom, P.; et al. Proc. Natl. Acad. Sci. USA 2002, 99, 16427-16432).
Time course analysis of WT-TTR fibril formation inhibition by compounds 25, 47, and 64. Compounds 25, 47, and 64 were dissolved in DMSO to provide 7.2 mM primary stock solutions (10× stocks), from which 5- and 10-fold DMSO dilutions yielded 1.44 mM (2×) and 0.72 mM (1×) secondary stock solutions, respectively. 495 μL of 0.4 mg/mL (7.2 μM) WT-TTR solution (10 mM sodium phosphate, 100 mM KCl, and 1 mM EDTA, pH 7.2), and 5 μL of either the 1.44 or 0.72 mM inhibitor secondary stock solutions were added to disposable UV cuvettes, vortexed briefly, then incubated for 30 min at 25° C. The pH was then adjusted to 4.4 with addition of 500 μL of acidic buffer (100 mM acetate, 100 mM KCl, 1 mM EDTA, pH 4.2), and the final 1 mL solutions were vortexed again and incubated in the dark at 37° C. without agitation. At 0, 4, 8, 12, 25, 49, 74, 100, 122, 145, and 169 h time points after acidification, the solutions were vortexed and the turbidity at 500 nm was measured. Control samples containing 5 μL of pure DMSO were prepared and analyzed as above for comparison. Small molecule and TTR control samples were prepared in groups of 10 to prevent disturbance of the cuvettes during incubation. Samples were discarded after their turbidities were measured.
FIG. 10 is a plot of the timecourse analysis of WT-TTR (3.6 μM) fibril formation mediated by partial acid denaturation in the absence (▴) and presence of 7.2 μM (⋄) and 3.6 μM (∘) inhibitors 25, 47, and 64, as measured by turbidity at 500 nm (see color scheme within Figure to differentiate inhibitors). It is hard to discern which compound is most efficacious in the black and white plot.

WT-TTR [2] = biological target: T1, WT-TTR; assay: time course analysis of WT-TTR tetramer dissociation in urea (far-UV CD); assay type: biochemical; settings: for rate of TTR tetramer dissociation monitored by far-UV CD: 6M urea, TTR 3.6 μM, inhibitor 7.2 and 3.6 μM; for rank in tetramer dissociation time course at the end of the plot: after 169 hours, 6.0 M urea, WT-TTR 3.6 μM
Text: as §1
Time course analysis of WT-TTR tetramer dissociation inhibition by compounds 25, 47, and 64 evaluated by linked-monomer unfolding in urea. Compounds 25, 47, and 64 were dissolved in DMSO to provide 10 mM primary stock solutions, from which 10-fold EtOH dilutions yielded 1 mM secondary stock solutions. 200 μL of 1.0 mg/mL (18 μM) WT-TTR solution (50 mM sodium phosphate, 100 mM KCl, and 1 mM EDTA, pH 7.2), and either 7.2 or 3.6 μL (2× and 1×, respectively) of 1 mM inhibitor secondary stock solutions were added to 2 mL eppendorf tubes, vortexed briefly, and incubated for 15 min at 25° C. 100 μL of the TTR•inhibitor solutions were added to 900 μL of urea buffer (6.67 M urea, 50 mM sodium phosphate, 100 mM KCl, 1 mM EDTA, pH 7.2), and the final 1 mL solutions were vortexed again and incubated in the dark at 25° C. without agitation. At 0, 4, 11, 24, 49, 73, 97, 122, 146, and 170 h time points after mixing with urea, the circular dichroism spectra were measured between […], with scanning every 0.5 nm and averaging for 5 s. After measurements were taken, samples were returned to their respective eppendorf tubes and incubation was continued. Control samples containing 7.2 μL of 10% DMSO in EtOH were prepared and analyzed as above for comparison. The CD amplitude values were averaged between 215 and 218 nm to determine the extent of β-sheet loss throughout the experiment. TTR tetramer dissociation is linked to the rapid (˜500,000× faster) monomer denaturation as measured through this β-sheet loss (Hammarstrom, P.; et al. Proc. Natl. Acad. Sci. USA 2002, 99, 16427-16432).
FIG. 11 is a plot of the timecourse analysis of WT-TTR (3.6 μM) tetramer dissociation (6.0 M urea) in the absence (▴) and presence of 7.2 μM (⋄) and 3.6 μM (∘) concentrations of inhibitors 25, 47, and 64 (see color scheme within Figure to differentiate inhibitors). Slow tetramer dissociation is not detectable by far-UV CD spectroscopy, but this process is linked to rapid (˜500,000× faster) monomer denaturation as monitored by loss of β-sheet content easily followed by circular dichroism spectroscopy. It is hard to discern which compound is most efficacious in the black and white plot.

[3] = precipitation of small molecule under acid-mediated amyloidogenic conditions in the absence of TTR; assay type: physicochemical; settings: 3.6 μM, pH 4.4, 37° C., 72 h
Method: TTR amyloid inhibition efficacy was probed using a stagnant fibril formation assay described previously, wherein partial denaturation was triggered by acidification (pH 4.4, 37° C.) (Colon, W.; Kelly, J. W. Biochemistry 1992, 31, 8654-8660). Briefly, a test compound (7.2 or 3.6 μM) is incubated with TTR (3.6 μM) for 30 min in pH 7 buffer. Amyloidogenesis is then initiated by lowering to pH 4.4, where maximal fibril formation is observed with WT-TTR after 72 h (37° C.). The turbidity in the presence of a potential inhibitor (Ttest) is compared to that of a solution lacking a test compound (Tcontrol). […] From experience we know that excellent inhibitors allow <10% fibril formation at a small molecule concentration of 7.2 μM and <40% fibril formation at a concentration equal to that of WT-TTR (3.6 μM) (Hammarstrom, P.; et al. Science 2003, 299, 713-716; Klabunde, T.; et al. Nature Struct. Biol. 2000, 7, 312-321; Razavi, H.; et al. Angew Chem 2003, 42, 2758-2761; Miroy, G. J.; et al. Proc. Natl. Acad. Sci. USA 1996, 93, 15051-15056; Peterson, S. A.; et al. Proc. Natl. Acad. Sci. USA 1998, 95, 12956-12960; Baures, P. W.; et al. Bioorg. Med. Chem. 1998, 6, 1389-1401; Baures, P. W.; et al. Bioorg. Med. Chem. 1999, 7, 1339-1347; Petrassi, H. M.; et al. J. Am. Chem. Soc. 2000, 122, 2178-2192; McCammon, M. G.; et al. Structure 2002, 10, 851-863; Oza, V. B.; et al. J. Med. Chem. 2002, 45, 321-332; Sacchettini, J. C.; et al. Nature Rev. Drug Disc. 2002, 1, 267-275; Green, N. S.; et al. J. Am. Chem. Soc. 2003, 125, 13404-13414; Adamski-Werner, S. L.; et al. J. Med. Chem. 2004, 47, 355-374; Miller Sean, R.; et al. Lab. Inv. 2004, 84, 545-552). […] Therefore, when both the ligand and TTR are at equal concentrations, a population of TTR•I, TTR•I2 and unliganded TTR is observed, dictated by the dissociation constants. It is now established by other studies that inhibitor occupancy of only one of the two TTR binding sites is sufficient to stabilize the entire tetramer against amyloidogenesis (Wiseman, R. L.; et al. J. Am. Chem. Soc. 2005, in press). This is further supported by the observation herein that twenty-six of these dibenzofurans are excellent TTR amyloidogenesis inhibitors (<40% fibril formation) at a concentration equal to that of TTR (3.6 μM each, FIG. 3).

Structure (SMILES) | TTR amyloidogenesis mediated by partial acidification relative to control (WT-TTR [1]) | rate of TTR tetramer dissociation monitored by far-UV CD (WT-TTR [2]) | rank in tetramer dissociation time course at the end of the plot (WT-TTR [2]) | precipitation of compound in the absence of TTR [3] | rank by fibrils formed at the end of the time course (WT-TTR [1]; after 169 hours, partial acid denaturation)
O=C(O)c1cccc2c1oc1c(C(=O)O)ccc(Nc3ccccc3C(F)(F)F)c12 [Compound 25] | dramatically slowed in a dose-dependent fashion | markedly slowed in a dose-dependent fashion | most effective in dissociating tetramers | no measurable precipitation | 
O=C(O)c1cccc2c1oc1c(C(=O)O)ccc(Oc3cc(Cl)cc(Cl)c3)c12 [Compound 47] | dramatically slowed in a dose-dependent fashion | markedly slowed in a dose-dependent fashion |  | no measurable precipitation | shows the most fibrils formed
O=C(O)c1cccc2c1oc1c(C(=O)O)ccc(-c3cc(C(F)(F)F)cc(C(F)(F)F)c3)c12 [Compound 64] | dramatically slowed in a dose-dependent fashion | markedly slowed in a dose-dependent fashion | followed by compound 64 |  | 
